Data as given in ChEMBL document CHEMBL5365447, “Pronucleotides of 2',3'-Dideoxy-2',3'-Didehydrothymidine as Potent Anti-HIV Compounds” (J Med Chem, 2023).
The source made the active and inactive calls. The calls are words filed in the database; no cut-off is given here.

Experiments:
[1] = Prodrug conversion in human CEM/0 cell extract assessed as ((2S,5R)-5-(5-methyl-2,4-dioxo-3,4-dihydropyrimidin-1(2H)-yl)-2,5-dihydrofuran-2-yl)methyl tri-hydrogen diphosphate formation by HPLC analysis; format: ADME; conditions: ccrf-cem
[2] = Prodrug conversion in pH 7.3 phosphate buffer assessed as ((2S,5R)-5-(5-methyl-2,4-dioxo-3,4-dihydropyrimidin-1(2H)-yl)-2,5-dihydrofuran-2-yl)methyl tri-hydrogen diphosphate formation by measuring half life in presence of pig liver esterase by HPLC analysis; format: ADME
[3] = molecular target: T1, DNA polymerase alpha catalytic subunit (Homo sapiens) (UniProt P09884); assay: Substrate activity at human DNA polymerase alpha measured after 4 hrs by electrophoresis based primer extension assay
T1 sequence (whole entry): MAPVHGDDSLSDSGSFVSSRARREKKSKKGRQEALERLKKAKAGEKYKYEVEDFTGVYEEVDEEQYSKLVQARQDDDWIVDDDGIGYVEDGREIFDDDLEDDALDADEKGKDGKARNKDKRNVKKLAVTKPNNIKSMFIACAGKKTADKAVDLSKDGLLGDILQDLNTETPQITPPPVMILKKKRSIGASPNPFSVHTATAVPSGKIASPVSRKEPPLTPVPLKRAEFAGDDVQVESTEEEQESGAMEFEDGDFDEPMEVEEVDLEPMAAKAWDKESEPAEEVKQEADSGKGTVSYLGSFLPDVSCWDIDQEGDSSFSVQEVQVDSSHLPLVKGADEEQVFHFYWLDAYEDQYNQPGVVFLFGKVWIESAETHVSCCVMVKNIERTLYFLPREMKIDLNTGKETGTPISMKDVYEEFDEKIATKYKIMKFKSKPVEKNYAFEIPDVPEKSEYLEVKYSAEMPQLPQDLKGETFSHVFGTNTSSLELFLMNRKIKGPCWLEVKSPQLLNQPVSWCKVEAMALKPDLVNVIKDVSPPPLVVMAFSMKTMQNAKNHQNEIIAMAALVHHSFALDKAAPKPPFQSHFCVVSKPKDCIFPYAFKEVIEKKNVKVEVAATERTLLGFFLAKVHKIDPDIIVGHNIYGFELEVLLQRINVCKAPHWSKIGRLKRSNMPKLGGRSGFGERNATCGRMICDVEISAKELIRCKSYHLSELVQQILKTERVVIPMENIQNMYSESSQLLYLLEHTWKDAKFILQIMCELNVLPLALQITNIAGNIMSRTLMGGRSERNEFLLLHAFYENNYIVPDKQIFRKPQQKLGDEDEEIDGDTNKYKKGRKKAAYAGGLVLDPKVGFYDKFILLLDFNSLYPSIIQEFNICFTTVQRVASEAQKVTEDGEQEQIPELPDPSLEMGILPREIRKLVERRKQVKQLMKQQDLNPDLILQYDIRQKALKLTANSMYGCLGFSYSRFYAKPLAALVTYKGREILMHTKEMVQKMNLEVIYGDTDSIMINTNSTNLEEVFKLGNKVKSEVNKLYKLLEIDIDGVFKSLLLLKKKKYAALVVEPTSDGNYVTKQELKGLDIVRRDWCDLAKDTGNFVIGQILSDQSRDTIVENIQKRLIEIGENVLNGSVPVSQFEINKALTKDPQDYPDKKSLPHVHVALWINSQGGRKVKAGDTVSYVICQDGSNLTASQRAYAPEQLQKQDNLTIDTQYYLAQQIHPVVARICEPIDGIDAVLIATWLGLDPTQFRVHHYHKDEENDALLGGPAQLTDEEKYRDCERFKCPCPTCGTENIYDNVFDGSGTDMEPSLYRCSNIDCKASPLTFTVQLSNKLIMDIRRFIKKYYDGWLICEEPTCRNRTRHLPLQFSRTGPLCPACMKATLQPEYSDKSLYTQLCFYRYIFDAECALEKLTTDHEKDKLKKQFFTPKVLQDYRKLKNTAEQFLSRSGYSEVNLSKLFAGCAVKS

[4] = Retention time of the compound by HPLC analysis; format: physicochemical
[5] = Cytotoxicity against human CEM cells assessed as reduction in cell viability incubated for 4 to 5 days by light microscopic analysis; format: toxicity, cell-based; conditions: CEM cells (CCRF-CEM), time 4-5 day
[6] = molecular target: T2, DNA polymerase subunit gamma-1 (Homo sapiens) (UniProt P54098); assay: Substrate activity at human DNA polymerase gamma measured after 4 hrs by electrophoresis based primer extension assay
T2 sequence (whole entry): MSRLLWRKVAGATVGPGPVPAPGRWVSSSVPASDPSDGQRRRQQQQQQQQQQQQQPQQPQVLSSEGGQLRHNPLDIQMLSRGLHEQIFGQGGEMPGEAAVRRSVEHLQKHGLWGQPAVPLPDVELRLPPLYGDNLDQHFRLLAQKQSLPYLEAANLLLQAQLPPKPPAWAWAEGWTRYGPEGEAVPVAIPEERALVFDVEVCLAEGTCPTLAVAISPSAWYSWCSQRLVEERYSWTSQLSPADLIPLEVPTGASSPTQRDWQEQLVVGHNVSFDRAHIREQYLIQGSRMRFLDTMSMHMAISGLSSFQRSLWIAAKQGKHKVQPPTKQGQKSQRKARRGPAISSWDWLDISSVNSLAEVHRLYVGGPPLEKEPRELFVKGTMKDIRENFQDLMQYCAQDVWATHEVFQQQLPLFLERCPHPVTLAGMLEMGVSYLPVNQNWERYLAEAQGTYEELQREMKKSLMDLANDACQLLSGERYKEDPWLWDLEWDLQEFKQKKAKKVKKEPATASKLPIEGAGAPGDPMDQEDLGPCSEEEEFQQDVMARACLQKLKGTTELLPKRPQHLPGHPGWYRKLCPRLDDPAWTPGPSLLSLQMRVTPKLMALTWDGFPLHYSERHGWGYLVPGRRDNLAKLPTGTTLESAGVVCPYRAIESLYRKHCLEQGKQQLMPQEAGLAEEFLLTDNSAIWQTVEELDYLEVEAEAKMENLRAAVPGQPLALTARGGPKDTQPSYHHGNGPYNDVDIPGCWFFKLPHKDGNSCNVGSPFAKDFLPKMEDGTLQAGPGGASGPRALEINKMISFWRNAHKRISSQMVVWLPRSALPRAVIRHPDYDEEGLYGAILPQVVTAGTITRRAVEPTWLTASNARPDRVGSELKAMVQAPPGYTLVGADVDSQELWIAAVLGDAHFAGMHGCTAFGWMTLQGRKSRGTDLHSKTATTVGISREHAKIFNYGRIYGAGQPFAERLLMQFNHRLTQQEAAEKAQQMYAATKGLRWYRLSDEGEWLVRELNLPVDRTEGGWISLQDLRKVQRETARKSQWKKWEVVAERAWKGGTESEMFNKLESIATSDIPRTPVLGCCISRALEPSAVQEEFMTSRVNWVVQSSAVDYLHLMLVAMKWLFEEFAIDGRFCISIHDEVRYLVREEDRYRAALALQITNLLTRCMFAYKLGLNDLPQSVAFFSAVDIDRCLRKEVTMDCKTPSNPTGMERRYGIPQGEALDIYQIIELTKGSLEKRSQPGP

[7] = system: Human immunodeficiency virus; assay: Substrate activity at HIV reverse transcriptase measured after 4 hrs by electrophoresis based primer extension assay
[8] = Prodrug conversion in human CEM/0 cell extract assessed as ((2S,5R)-5-(5-methyl-2,4-dioxo-3,4-dihydropyrimidin-1(2H)-yl)-2,5-dihydrofuran-2-yl)methyl tetrahydrogen triphosphate formation by HPLC analysis; format: ADME; conditions: ccrf-cem
[9] = molecular target: DNA polymerase beta (Homo sapiens) (UniProt P06746); assay: Substrate activity at human DNA polymerase beta measured after 4 hrs by electrophoresis based primer extension assay
[10] = Prodrug conversion in human CEM/0 cell extract assessed as metabolite formation by measuring half life by HPLC analysis; format: ADME; conditions: ccrf-cem
[11] = Chemical stability of the compound in phosphate buffer assessed as half life at pH 7.3 by HPLC analysis; format: physicochemical
[12] = system: Human immunodeficiency virus 2; assay: Potency index, ratio of 3'-deoxy-2',3'-dehydrothymidine EC50 to compound EC50 for antiviral activity against HIV-2 ROD infected in wild-type human CEM/0 cells; format: functional
[13] = system: Human immunodeficiency virus 1; assay: Potency index, ratio of 3'-deoxy-2',3'-dehydrothymidine EC50 to compound EC50 for antiviral activity against HIV-1 HE infected in wild-type human CEM/0 cells; format: functional
[14] = Selectivity index, ratio of CC50 for human CEM cells to EC50 for HIV-2 ROD infected in thymidine kinase-deficient human CEM cells; format: toxicity; conditions: read-out: Ratio CC50/EC50
[15] = system: Human immunodeficiency virus 2; assay: Potency index, ratio of 3'-deoxy-2',3'-dehydrothymidine EC50 to compound EC50 for antiviral activity against HIV-2 ROD infected in thymidine kinase-deficient human CEM[…] cells; format: functional
[16] = Chemical stability of the compound in phosphate buffer saline assessed as half life at pH 7.3 by HPLC analysis; format: physicochemical; conditions: phosphate buffered saline
[17] = system: Human immunodeficiency virus 2; assay: Antiviral activity against HIV-2 ROD infected in wild-type human CEM/0 cells assessed as inhibition of virus-induced cytopathic effect incubated for 4 to 5 days by light microscopic analysis; format: functional, organism-based; conditions: Human immunodeficiency virus 2, ROD, CCRF-CEM
[18] = Prodrug conversion in human CEM/0 cell extract assessed as ((2S,5R)-5-(5-methyl-2,4-dioxo-3,4-dihydropyrimidin-1(2H)-yl)-2,5-dihydrofuran-2-yl)methyl dihydrogen phosphate formation by HPLC analysis; format: ADME; conditions: ccrf-cem
[19] = system: Human immunodeficiency virus 1; assay: Antiviral activity against HIV-1 HE infected in wild-type human CEM/0 cells assessed as inhibition of virus-induced cytopathic effect incubated for 4 to 5 days by light microscopic analysis; format: functional, organism-based; conditions: Human immunodeficiency virus 1, HE, CCRF-CEM
[20] = Prodrug conversion in pH 7.3 phosphate buffer assessed as ((2S,5R)-5-(5-methyl-2,4-dioxo-3,4-dihydropyrimidin-1(2H)-yl)-2,5-dihydrofuran-2-yl)methyl dihydrogen phosphate formation by measuring half life in presence of pig liver esterase by HPLC analysis; format: ADME
[21] = system: Human immunodeficiency virus 2; assay: Antiviral activity against HIV-2 ROD infected in thymidine kinase-deficient human CEM cells assessed as inhibition of virus-induced cytopathic effect incubated for 4 to 5 days by light microscopic analysis; format: functional, organism-based; conditions: Human immunodeficiency virus 2, ROD, CCRF-CEM

Row | Drug metabolism [1] | Activity [3] | Retention_time [4] | Activity [6] | Activity [7] | Activity [9] | t1/2 [10] | SMILES | t1/2 [2] | CC50 [5] | Drug metabolism [8] | half-life [11] | selectivity ratio [14] | also measured
1 | Metabolite_Detected | inactive | 16.2 min | inactive | Active | inactive | > 10 h | CCCCCCCCCCCCCCCCCCOP(=O)(OCCCC)OP(=O)(O)OP(=O)(O)OC[C@@H]1C=C[C@H](n2cc(C)c(=O)[nH]c2=O)O1.N.N (stereo partly specified) | > 150 h | 30 µM | Metabolite_Notdetected | 990 h | 938 | Ratio EC50 [12]: 4; Ratio EC50 [13]: 4; Ratio EC50 [15]: 10000
2 | Metabolite_Notdetected | inactive | 18.9 min | inactive | inactive | inactive | > 18 h | CCCCCCCCCCCCCCCCCCOP(=O)(OCCCC)OP(=O)(O)OC[C@@H]1C=C[C@H](n2cc(C)c(=O)[nH]c2=O)O1.N (stereo partly specified) | – | 41.3 µM | – | – | 37500 | half-life [16]: > 1000 h; EC50 [17]: 0.004 µM; Drug metabolism [18]: Metabolite_Detected; EC50 [19]: 0.033 µM; t1/2 [20]: > 150 h; EC50 [21]: 0.001 µM

Row | SMILES | Drug metabolism [1] | Activity [3] | Retention_time [4] | Activity [6] | Activity [7] | Activity [9] | t1/2 [10] | t1/2 [2] | CC50 [5] | Drug metabolism [8] | half-life [11] | selectivity ratio [14] | also measured
3 | CCCCCCCCCCCCCCCCCCP(=O)(OCCCC)OP(=O)(O)OP(=O)(O)OC[C@@H]1C=C[C@H](n2cc(C)c(=O)[nH]c2=O)O1.N.N (stereo partly specified) | Metabolite_Detected | inactive | 15.9 min | inactive | inactive | inactive | > 15 h | > 150 h | 33 µM | Metabolite_Notdetected | > 1700 h | – | –
